Measurements published in patent US9241939B2, “Combination of (a) a phosphoinositide 3-kinase inhibitor and (b) a modulator of RAS/RAF/MEK pathway” (Novartis AG, priority 2008, dated 2016).
Read-outs that look alike come from different tables or passages of the source.

Tests used:
[1] = tested on: Akt; p70S6K or ERK in A549 cells; test: Western-blotting of phosphorylated Akt, p70S6K and ERK; type: cell-based; conditions: incubated alone, 30 min, PD03251901 250 nM
Experimental: FIG. 1: A549 cells were incubated either with compound A, PD03251901 (250 nM) alone or in combination for 30 min. Cells were then harvested and estimation of phosphorylated levels of either Akt; p70S6K or ERK done by regular Western-blotting.

BN472 tumors = test: BN472 tumor model; type: in vivo; conditions: rat, weak and not significant
Experimental: FIG. 2: Rat bearing BN472 tumors were treated with the indicated compound at the indicated dose and schedule, either alone or in combination. Evolution of tumor growth were followed by callipering throughout the course of the study. *, P<0.05 (Dunnett's).
FIG. 3: Rat bearing BN472 tumors were treated with the indicated compound at the indicated dose and schedule, either alone or in combination. Evolution of body weight were followed throughout the course of the study. *, P<0.05 (Dunnett's).
In the BN472 tumor model administration of compound A at a dose of 10 mg/kg (p.o., 1q24h) or the Raf inhibitor Raf265 (at a dose of 2.5 mg/kg, po, […]) produced a weak and not significant antitumor activity (expressed as T/C) of either 83 and 76. The combination of compound A (10 mg/kg) with RAF265, however, produced a strong and statistically significant antitumor activity with a T/C of 34% (FIG. 2).

A549 cells = test: standard methylene blue proliferation assay; type: cell-based
Experimental: The KRAS mutant NSCLC cell line was used in a standard methylene blue proliferation assay.
A549 cells were incubated with increasing amount of either compound A or PD0325901 (NVP-LBW624) alone or in combination, for 72 h and proliferation assessed with a standard methylene blue assay. The G150 were determined and CI quantified with the CalcuSyn software.

Structure (SMILES)	block of respective downstream effectors (ERK and Akt) [1]	antitumor activity (expressed as T/C) (BN472 tumors; compound A 10 mg/kg p.o. 1q24h alone)	GI50 (A549 cells; A549 cells, 72 h, compound A and PD0325901 (NVP-LBW624) in combination, read-out: GI50 (in nM) in combination) [nM]	Combination Index (CI) (A549 cells; A549 cells, 72 h, compound A with PD0325901 (NVP-LBW624), CalcuSyn software)	GI50 (A549 cells; Homo sapiens, A549, 72 h, A549 cells (KRAS mutant NSCLC), 72 h, single agent, read-out: GI50 (in nM) alone) [nM]	GI50 (A549 cells; Homo sapiens, A549, 72 h, A549 cells, 72 h, compound A and PD0325901 (NVP-LBW624) in combination, read-out: GI50 (in nM) in combination) [nM]	times less BEZ235 required for a similar decrease in proliferation (A549 cells; in presence of PD0325901) [times]	antitumor activity (expressed as T/C) (BN472 tumors; Raf265 2.5 mg/kg po q24h alone)	GI50 (A549 cells; Homo sapiens, A549, 72 h, read-out: GI50 (in nM) alone) [nM]	GI50 (A549 cells; Homo sapiens, A549, 72 h, read-out: GI50 (in nM) in combination) [nM]
Cn1c(=O)n(-c2ccc(C(C)(C)C#N)cc2)c2c3cc(-c4cnc5ccccc5c4)ccc3ncc21 [Compound A, 2-methyl-2-[4-(3-methyl-2-oxo-8-quinolin-3-yl-2,3-dihydro-imidazo[4,5-c]quinolin-1-yl)-phenyl]-propionitrile]	do block their respective downstream effectors	83	4.46	0.718	9.41	3.2	3	–	–	–
Cn1c(Nc2ccc(C(F)(F)F)cc2)nc2cc(Oc3ccnc(-c4ncc(C(F)(F)F)[nH]4)c3)ccc21 [RAF265, reference compound]	–	–	–	–	–	–	–	76	–	–
O=C(NOC[C@H](O)CO)c1ccc(F)c(F)c1Nc1ccc(I)cc1F [PD0325901, reference compound]	do block their respective downstream effectors	–	–	–	–	–	–	–	36.8	11.5
